Data on one compound can be found in publication PMC8348983 (International Journal of Molecular Sciences, 2021).

What all share (assay type): biochemical
One test concerns the target human recombinant AChE (Homo sapiens, UniProt P22303). In words: biochemical.
Another test deals with T1, human plasma BChE (Homo sapiens, UniProt P06276).
T1 construct: was used as a source of BChE and was prepared from heparinized human blood; from tissue; host or cells: human plasma from heparinized human blood
Nature of the test: biochemical.

A further test concerns the target T2, hBuChE (Homo sapiens, UniProt P06276).
T2 construct: was used as a source of BChE and was prepared from heparinized human blood; from tissue; host or cells: human plasma from heparinized human blood
In words: Kinetic study of hBuChE inhibition. How it is done:
Compound 6, the derivative with the most robust inhibitory activity, was subjected to enzyme kinetics analysis to determine the mode of hBuChE inhibition. Inhibition kinetics were elucidated from velocity curves that were measured at several concentrations of substrate butyrylthiocholine and test compound. The type of enzyme inhibition and corresponding kinetic parameters (Ki and Ki′) were determined by nonlinear regression analysis. Results for each type of model of inhibition (competitive, non-competitive, uncompetitive, and mixed) were compared by the sum-of-squares F-test. […].
Kinetic studies employed the same procedure that was previously described. Supplementary Materials provides details of this assay.
Biological assays in detail hAChE and hBuChE Inhibition Assay
The inhibitory activities of prepared compounds and standards against human recombinant AChE (E.C.
3.1.1.7) and human plasma BChE (E.C. 3.1.1.8) were determined using modified Ellman’s method […]
cholinesterase activity). Human recombinant AChE, phosphate buffer (PB, pH = 7.4), 5,5’ -dithio-bis(2-nitrobenzoic) acid (Ellman’s reagent, DTNB), acetylthiocholine (ATCh), butyrylthiocholine (BTCh), and other used compounds were purchased from Sigma-Aldrich (Prague, Czech Republic). […]
The solutions of she corresponding cholinesterase in PB were prepared up to the final activity 0.002 U/µL. […] The increase of absorbance was measured at 412 nm using Multimode microplate reader Synergy 2 (BioTek Inc., Winooski, VT, USA). For the calculation of the resulting measured activity (the percentage of inhibition I) following formula was used: […]
where ΔAi indicates absorbance change provided by adequate enzyme exposed to corresponding inhibitor and ΔA0 indicates absorbance change when a solution of PB was added instead of a solution of inhibitor. […]
The kinetic study hBuChE was performed by using above mentioned modified Ellman’s method. The values of Vmax and Km of the Michaelis-Menten kinetics as well as the values of Ki and Ki’ were calculated by nonlinear regression from the substrate velocity curves. […]

A further test has as its target T3, MAO-B (Homo sapiens, UniProt P27338).
T3 construct: purchased Merck, Germany
T3 sequence (P27338 1-520): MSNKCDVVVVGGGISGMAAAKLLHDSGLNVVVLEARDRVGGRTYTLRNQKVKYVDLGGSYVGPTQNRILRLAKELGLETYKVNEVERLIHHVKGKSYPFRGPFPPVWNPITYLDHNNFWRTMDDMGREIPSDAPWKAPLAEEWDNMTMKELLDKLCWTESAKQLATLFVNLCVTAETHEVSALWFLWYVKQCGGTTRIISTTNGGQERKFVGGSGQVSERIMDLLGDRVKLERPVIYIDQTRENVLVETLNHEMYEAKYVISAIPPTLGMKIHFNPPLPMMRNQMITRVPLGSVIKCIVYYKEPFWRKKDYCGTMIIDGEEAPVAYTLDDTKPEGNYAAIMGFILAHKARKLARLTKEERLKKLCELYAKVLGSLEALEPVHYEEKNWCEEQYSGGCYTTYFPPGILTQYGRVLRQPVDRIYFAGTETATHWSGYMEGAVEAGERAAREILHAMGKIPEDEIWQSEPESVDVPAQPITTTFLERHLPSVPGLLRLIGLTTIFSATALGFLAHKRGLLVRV
Nature of the test: MAO-B inhibition assay. How it is done: Since monoamine oxidase (MAO; EC 1.4.3.4) inhibitors are considered as neuroprotective agents, compound 6 was screened at two concentrations (1 and 10 µM) for its inhibition potential against both isoforms of human MAOs. […]; MAO inhibition assay was performed as previously described. Supplementary Materials provides details of this assay. […]
The reaction mixture contains 2.5mg/mL MAO -A or 6.25mg/mLMAO-B enzyme (Merck, Germany) and inhibitor in final concentrations of […] in 50 mM potassiumphosphate buffer with 20% (v/v) glycerol (pH 7.5). […] The sample was then centrifuged (16.500 g) for10 min.The deamination product of kynuramine formed during the enzymatic reaction 4-hydroxyquinoline (4-HQ) was determined by UHPLC-MS on a Zorbax RRHD Eclipse plus C18 column (2.1 mm x 50 mm, […]) (Agilent Technologies, USA), by using a 6470 Series Triple Quadrupole mass spectrometer (Agilent Technologies, USA) as detector with electrospray ionisation – positive ion mode. […]
0.1% formic acid in water; (B) 0.1% formic acid in acetonitrile. IC 50of individual compounds were determined by nonlinear regression usingGraphPad Prism 8.0 (GraphPad Software, USA).

Where two headings read alike, the source gives them in different places.

T1 sequence (P06276 29-602): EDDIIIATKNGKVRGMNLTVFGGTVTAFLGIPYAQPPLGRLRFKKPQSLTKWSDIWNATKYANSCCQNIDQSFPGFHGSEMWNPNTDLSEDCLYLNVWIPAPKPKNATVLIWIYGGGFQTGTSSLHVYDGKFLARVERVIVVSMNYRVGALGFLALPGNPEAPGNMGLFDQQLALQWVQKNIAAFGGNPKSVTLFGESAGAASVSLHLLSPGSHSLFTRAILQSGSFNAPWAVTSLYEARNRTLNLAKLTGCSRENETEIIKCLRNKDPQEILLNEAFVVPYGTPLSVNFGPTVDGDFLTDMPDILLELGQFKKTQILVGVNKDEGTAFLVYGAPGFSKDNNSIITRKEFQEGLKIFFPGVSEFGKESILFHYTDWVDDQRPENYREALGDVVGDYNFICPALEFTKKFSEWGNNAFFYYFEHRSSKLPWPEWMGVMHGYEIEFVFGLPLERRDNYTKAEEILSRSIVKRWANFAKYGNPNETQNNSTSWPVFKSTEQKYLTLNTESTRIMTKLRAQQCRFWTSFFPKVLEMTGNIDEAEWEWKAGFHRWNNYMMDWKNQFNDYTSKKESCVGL
Chain of human recombinant AChE (P22303 32-614): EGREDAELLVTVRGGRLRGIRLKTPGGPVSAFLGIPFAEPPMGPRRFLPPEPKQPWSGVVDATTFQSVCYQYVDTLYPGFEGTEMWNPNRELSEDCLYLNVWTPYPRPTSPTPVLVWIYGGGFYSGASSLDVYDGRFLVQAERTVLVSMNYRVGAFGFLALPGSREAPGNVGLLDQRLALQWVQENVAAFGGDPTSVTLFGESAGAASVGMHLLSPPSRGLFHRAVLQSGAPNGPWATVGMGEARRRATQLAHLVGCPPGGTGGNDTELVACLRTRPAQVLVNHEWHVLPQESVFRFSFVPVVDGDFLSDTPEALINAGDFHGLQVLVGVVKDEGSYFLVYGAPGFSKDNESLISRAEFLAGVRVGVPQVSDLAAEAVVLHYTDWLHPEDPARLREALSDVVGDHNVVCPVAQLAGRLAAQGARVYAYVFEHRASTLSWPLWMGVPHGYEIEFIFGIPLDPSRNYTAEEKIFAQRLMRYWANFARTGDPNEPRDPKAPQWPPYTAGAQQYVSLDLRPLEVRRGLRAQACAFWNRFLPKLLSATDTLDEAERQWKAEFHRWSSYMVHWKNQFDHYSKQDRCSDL

Consider `C=CCOc1ccc(CCN(CC=C)Cc2ccc(OC)c(OCc3ccccc3)c2)cc1` [Compound 6, N-allyl-N-(3-benzyloxy-4-methoxybenzyl)-2-(4-allyloxyphenyl)ethan-1-amine], for which the IC50 (usually the concentration at which inhibition is half-maximal) at human recombinant AChE (mean ± SEM of three independent measurements, each in triplicate, read-out: IC50, hAChE ± SEM) was greater than 100000 nM; on human plasma BChE (mean ± SEM of three independent measurements, each in triplicate, read-out: IC50, hBuChE ± SEM) it was 70 ± 10 nM; on human plasma BChE (read-out: IC50, hBuChE), 72 nM; on MAO-B it was greater than 10000 nM. The inhibition (usually the percentage by which the read-out fell short of the control) at 100 µM on human recombinant AChE (tested at 100 µM compound concentration, read-out: %Inhibition hAChE ± SEM) turned out to be 10.1 ± 0.6%; at human plasma BChE (tested at 100 µM compound concentration, read-out: % Inhibition hBuChE ± SEM), 98.6 ± 0.9%. Besides, the “Ki′” value at hBuChE (hBuChE, enzyme-substrate complex, nonlinear regression) is 347 ± 79 nM. Moreover, at hBuChE (hBuChE, substrate butyrylthiocholine, nonlinear regression), the Ki – broadly, a dissociation constant, usually derived from enzyme kinetics or from competition with a known ligand – was found to be 60.3 ± 11.6 nM. For the same compound, the “type of hBuChE inhibition” value on hBuChE (sum-of-squares F-test, p < 0.05, Lineweaver–Burk plot) is “mixed type of inhibition”. In addition, the “residual activity of MAO-B” value at MAO-B (1 and 10 µM) is “higher than 68%”.
